Reference: patent publication US20140213453A1, “PLANT GROWTH REGULATION” (SYNGENTA PARTICIPATIONS AG, priority 2011, published 2014)

Experiments:
Format in all cases: in vivo
winter rye (Rekrut) = experiment: Glasshouse trial, lodging after leaf spray at growth stage 30, winter rye; settings: untreated check 18.9
Description: (§1) A glasshouse trial was setup to compare growth regulation effects of trinexapac-ethyl, cis-jasmone, and mixtures of trinexapac-ethyl and cis-jasmone at various rates, on summer barley (Pasadena) and winter rye (Rekrut). Each treatment was applied as a spray to the leaves of the plant at plant growth stage 30 (start of stem elongation). Assessments of lodging were made 30 days after application; the results are expressed as percentage lodging in Table 2. [table]

summer barley (Pasadena) = experiment: Glasshouse trial, lodging after leaf spray at growth stage 30, summer barley; settings: for % lodging 30 DAA: summer barley, untreated check 32.2
Description: as §1

[1] = test system: Poa annua golf course fairway; experiment: Turf study, clipping weights on golf course fairway; settings: for Clipping weight (grams) per plot, 24-June / Clipping weight (grams) per plot, 10-June / Clipping weight (grams) per plot, 17-June / Clipping weight (grams) per plot, 3-July / Clipping weight (grams) per plot, 4-June: 3 applications on a 4 week schedule; for Clipping weight (grams) per plot, 24-June / Clipping weight (grams) per plot, 10-June / Clipping weight (grams) per plot, 17-June / Clipping weight (grams) per plot, 3-July / Clipping weight (grams) per plot, 4-June / Clipping weight (grams) per plot, Cumulative Clipping total: g ai/ha: TXP 96, CJN 50, TXP + cis-jasmone 72 + 50; for Clipping weight (grams) per plot, 24-June: check 11.95; for Clipping weight (grams) per plot, 10-June: check 12.1; for Clipping weight (grams) per plot, 17-June: check 13.8; for Clipping weight (grams) per plot, 3-July: check 15.7; for Clipping weight (grams) per plot, 4-June: check 21.5; for Clipping weight (grams) per plot, Cumulative Clipping total: total over all rating dates (not all shown), check 194
Experimental: A study was conducted on Poa annua golf course […], to compare the effects of treatment with cis-jasmone alone, trinexapac-ethyl alone, and combinations of cis-jasmone and trinexapac-ethyl. Clipping weights were measured at regular intervals.

barley = experiment: Trial in Switzerland, growth regulation (plant height) on barley; settings: rates g AI/ha: TXP (Moddus EC250) 75, CJN (EC300) 50, TXP + CJN 75 + 50, untreated check 89
Description: A trial was setup in Switzerland to compare growth regulation effects of trinexapac-ethyl, cis-jasmone, and mixtures of trinexapac-ethyl and cis-jasmone on barley. Assessments of plant height were made 21 days after application.

[2] = Treatment 2: TXP (Moddus) 200 g AI/ha
[3] = Treatment 3: TXP (Moddus) 100 g AI/ha

For `CC/C=C\CC1=C(C)CCC1=O` [CJN, cis-jasmone], the “% lodging 30 DAA” value (winter rye (Rekrut); Treatment 4: CJN 300 g AI/ha) was 23.3%, the “% lodging 30 DAA” value (winter rye (Rekrut); Treatment 5: CJN 150 g AI/ha) was 30.0% and the “% lodging 30 DAA” value (summer barley (Pasadena); Treatment 4: CJN 300 g AI/ha) was 60.0%. The “% lodging 30 DAA” value (summer barley (Pasadena); Treatment 5: CJN 150 g AI/ha) was 70.0%, the “effect on lodging, in words” value (summer barley (Pasadena); text summary for summer barley and winter rye, cis-jasmone treatments 4 and 5 compared to treatment 1 (untreated)) was “significantly increases lodging” and the “Clipping weight (grams) per plot, 24-June” value [1] was 14.7 a grams. For the same compound, the “Clipping weight (grams) per plot, 10-June” value [1] was 12.8 a grams, the “Clipping weight (grams) per plot, 17-June” value [1] was 17.69 a grams and the “Clipping weight (grams) per plot, 3-July” value [1] was 19.2 a grams. The “Clipping weight (grams) per plot, 4-June” value [1] was 21.7 a grams, the “effect on clipping weights, in words” value ([1]; Poa annua turf, compared to the untreated control) was “increased clipping weights” and the “Clipping weight (grams) per plot, Cumulative Clipping total” value [1] was 213.5 a grams. The “Plant height (cm) 21DAA” value (barley) was 90 cm.
With `CCOC(=O)C1CC(=O)C(=C(O)C2CC2)C(=O)C1` (stereo not drawn) [TXP, trinexapac-ethyl, reference compound] the “% lodging 30 DAA” value (winter rye (Rekrut); [2]) was 0.0%, the “% lodging 30 DAA” value (winter rye (Rekrut); [3]) was 6.7% and the “% lodging 30 DAA” value (summer barley (Pasadena); [2]) was 6.7%. The “% lodging 30 DAA” value (summer barley (Pasadena); [3]) was 10.0%, the “Clipping weight (grams) per plot, 24-June” value [1] was 10.71 grams and the “Clipping weight (grams) per plot, 10-June” value [1] was 9.27 d grams. For the same compound, the “Clipping weight (grams) per plot, 17-June” value [1] was 11.35 grams, the “Clipping weight (grams) per plot, 3-July” value [1] was 18.2 a grams and the “Clipping weight (grams) per plot, 4-June” value [1] was 18.1 grams. The “Clipping weight (grams) per plot, Cumulative Clipping total” value [1] was 173 def grams and the “Plant height (cm) 21DAA” value (barley) was 90 cm.
